Test results reported in patent US8609610B2, “Inhibitors of the trypsin-like site of the proteasome and methods of use thereof” (Trustees of Dartmouth College, priority 2011, dated 2013).
Where two headings read alike, the source gives them in different places.

Legend:
[1] = system: bortezomib-refractory primary myeloma cells from patients; test: Combination in bortezomib-refractory primary myeloma cells; assay type: cell-based; conditions: in combination with bortezomib or PR523; primary cells from three patients
[2] = target: β2 (trypsin-like site) of proteasome in HEK-293T cells (Homo sapiens, UniProt P49720+Q99436); test: Competition assay in living HEK-293T cells with activity-based probe; assay type: cell-based; conditions: 5 μM
Description: (§1) Proteasome inhibition in MM cells was measured with luminogenic substrates using PROTEASOMEGLO assay (Promega). […] An aliquot of culture was pelleted and medium was removed and replaced with PBS. The resulting cell suspension was mixed with luminogenic substrates in the manufacturer-provided lysis/assay buffer. After 3 minutes mixing on an orbital shaker, the plate was incubated in the dark for additional 17 minutes, followed by the measurements of the luminescence, performed in triplicate for each substrate/data point. Data were analyzed as for purified proteasomes. […] Cells (1×10^6 per well of a 6-well plate) were incubated with the inhibitors for 4 hours at 37° C. and this was followed by a 2 hour incubation with 5 μM BODIPY-TMR-epoxomicin. Subsequently, the medium was removed and the cells were washed with PBS and harvested. […] The supernatant was collected and the protein concentration was determined by the Bradford assay, and used to normalize gel loading. The samples were analysed by SDS-PAGE and fluorescent densitometry as described for competition experiment in cell lysates. IC50 values were calculated from three independent experiments using […] PRISM software.
(§2) Human embryonic kidney cells (some 1×10^6) were cultured in 6-well plates in DMEM containing 10% fetal calf serum, 10 units/mL penicillin and 10 μg/mL streptomycin in a 7% CO2 humidified incubator at 37° C. overnight. Part of the medium was taken and to this was added the appropriate inhibitor in DMSO (1 μL of a 1,000× stock solution), after which the medium was added to the cells. The cells were incubated with the inhibitors for 4 hours at 37° C. and this was followed by addition of MV151 (1 μL of a 5 mM stock solution in DMSO) and incubation for 2 hours at 37° C. Next, the medium was removed and the cells were washed with PBS and harvested. […] The supernatant was collected and the protein concentration was determined by the Bradford assay. All samples were normalized to the same protein concentration with lysis buffer.

[3] = target: T1, β5 proteasome subunit (Homo sapiens, UniProt P20618+P28074); test: Competition assay in HEK-293T cell lysate with MV151; assay type: biochemical; conditions: HEK-293T lysate, 50 μM
T1 construct: Whole cell lysates of HEK-293T or EL-4 cells were made by sonication; endogenous in cells; host or cells: HEK-293T
Description: (§3) Whole cell lysates of HEK-293T or EL-4 cells were made by sonication in 3 volumes of lysis buffer containing 50 mM Tris pH 7.5, 1 mM DTT, 5 mM MgCl2, 250 mM sucrose, 2 mM ATP, 0.025% digitonin. Protein concentration was determined by the Bradford assay. Cell lysates (13.5 μg total protein for HEK lysates and 9 μg total protein for EL-4 lysates) were exposed to the inhibitors for 1 hour at 37° C. prior to incubation with MV151 (0.5 μM) or BODIPY-TMR-epoxomicin (0.5 μM) for an additional 1 hour at 37° C. Reaction mixtures were boiled with Laemmli's buffer containing (3-mercaptoethanol for 5 minutes before being resolved by 12.5% SDS-PAGE. In-gel detection of residual proteasome activity was performed in the wet gel slabs directly on the TYPHOON Variable Mode Imager (Amersham Biosciences) using the Cy3/Tamra settings (λex 532 nm, λem 560 nm) to detect MV151, BODIPY-TMR-epoxomicin and Cy2/Fam settings (λex 488 nm, λem 520 nm) to detect compounds 39 and 59.
(§4) The inhibition potential of the inhibitors for each of the catalytically active subunits was assessed in competition assays employing extracts of human embryonic kidney cells (HEK-293T) and mouse lymphoma cells (EL-4) in combination with the fluorescent broad spectrum proteasome probe MV151 (Verdoes, et al. (2006) Chem. Biol. 13:1217-1226). Competitive inhibition of a proteasome active site is reflected by the disappearance of the corresponding band on a gel.

[4] = system: trypsin-like sites (β2) of proteasome in MM cells; test: PROTEASOMEGLO assay of proteasome inhibition in MM cells; assay type: cell-based
[5] = system: bortezomib-adapted cell lines AMO-1a and HL-60a; test: Combination in bortezomib-adapted cell lines; assay type: cell-based; conditions: in combination with bortezomib or PR523
[6] = system: myeloma cells U266 and AMO-1; test: Cytotoxicity in combination with β5-selective proteasome inhibitors; assay type: cell-based; conditions: PR671A with bortezomib or PR523
[7] = system: RPMI-8226 cells; test: ALAMAR BLUE cell viability assay; assay type: cell-based; conditions: RPMI-8226 cells
Outline: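 Myeloma lines were grown in RPMI-1640 with 10% FBS; viability of myeloma cells was read by ALAMAR BLUE mitochondrial dye conversion. PBMNC viability used CELL TITER-GLO ATP luminescence. Caspase-3/7 activity in NCI-H929 and MM1.R was measured with the APO-ONE homogeneous assay.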

[8] = system: Cathepsin B, H, L, S; test: Cathepsin activity with pan-cathepsin substrate Z-FR-amc; assay type: cell-based; conditions: NCI-H929 cells, 6 hour treatment
Outline: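 Extracts of cytosol-less cells were used throughout. Cathepsins B, H, L and S were assayed with the fluorogenic Z-FR-amc substrate at pH 6.0. Cathepsin D was measured with the SENSOLYTE 520 fluorometric kit.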

[9] = target: T2, β2 proteasome subunit (Mus musculus, UniProt P70195+Q9R1P1); test: Competition assay in EL-4 cell lysate with MV151; assay type: biochemical; conditions: 0.5 μM
T2 construct: Whole cell lysates of HEK-293T or EL-4 cells were made by sonication; endogenous in cells; host or cells: EL-4

[10] = target: β5 (chymotrypsin-like site) of proteasome in HEK-293T cells (Homo sapiens, UniProt P20618+P28074); test: Competition assay in living HEK-293T cells with activity-based probe; assay type: cell-based; conditions: concentrations up to 50 μM
Description: as §1, §2

[11] = target: T3, trypsin-like sites (β2) of proteasome in MM cells (Homo sapiens, UniProt Q99436); test: PROTEASOMEGLO assay of proteasome inhibition in MM cells; assay type: cell-based; conditions: 6 hours, >>30 no inhibition at 30 μM, >30 inhibition 10-50% at 30 μM, read-out: IC50 for sites: Tr-L
T3 construct: endogenous in cells; host or cells: NCI-H929, RPMI-8226 and other MM cell lines
T3 sequence (Q99436 44-277): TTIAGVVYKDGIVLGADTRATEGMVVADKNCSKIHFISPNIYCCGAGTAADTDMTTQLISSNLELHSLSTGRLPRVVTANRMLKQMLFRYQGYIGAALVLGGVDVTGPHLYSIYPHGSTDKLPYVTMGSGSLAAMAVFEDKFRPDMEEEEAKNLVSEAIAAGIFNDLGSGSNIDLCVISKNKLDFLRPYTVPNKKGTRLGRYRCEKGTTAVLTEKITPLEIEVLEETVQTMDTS

[12] = target: T4, β2i proteasome subunit (Mus musculus, UniProt O35955+Q9R1P1); test: Competition assay in EL-4 cell lysate with MV151; assay type: biochemical; conditions: EL-4 lysate
T4 construct: Whole cell lysates of HEK-293T or EL-4 cells were made by sonication; endogenous in cells; host or cells: EL-4
Description: as §3
as §4, with “Competitive inhibition of a proteasome active site is reflected by the disappearance of the corresponding band on a gel.” left out

[13] = target: caspase-like site of 26S proteasomes (Oryctolagus cuniculus, UniProt A0A5F9DQW2); test: Inhibition of purified 26S proteasomes, substrate Ac-nLPnLD-amc; assay type: biochemical, rabbit; conditions: >>30 no inhibition at 30 μM, >30 inhibition between 10 and 50% at 30 μM, read-out: IC50 for sites in 26S proteasomes: Casp-L
Sequence of caspase-like site of 26S proteasomes (A0A5F9DQW2 1-212): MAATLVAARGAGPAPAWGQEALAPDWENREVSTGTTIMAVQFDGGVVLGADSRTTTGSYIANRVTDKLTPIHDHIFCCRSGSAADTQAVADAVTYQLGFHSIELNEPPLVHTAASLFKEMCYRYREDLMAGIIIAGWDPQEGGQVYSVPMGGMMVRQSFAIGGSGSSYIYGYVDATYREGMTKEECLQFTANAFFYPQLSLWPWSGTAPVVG
Description: 26S proteasomes were purified from rabbit muscle using known methods (Screen, et al. (2010) supra). […] NOVEX Bis-Tris gels (12%, Invitrogen) with MOPS running buffer were used for electrophoretic separation of catalytic subunits modified by active-site probes. Inhibition of active sites inside cells was assayed using luminescent PROTEASOMEGLO assay (Promega; Moravec, et al. (2009) Anal. Biochem. 387:294-302) according to known methods (Britton, et al. (2009) supra).

[14] = target: T5, caspase-like sites (β1) of proteasome in MM cells (Homo sapiens, UniProt P28072+Q99436); test: PROTEASOMEGLO assay of proteasome inhibition in MM cells; assay type: cell-based; conditions: read-out: IC50 for sites: Casp-L, 6 hours, >>30 no inhibition at 30 μM, >30 inhibition 10-50% at 30 μM
T5 sequence (P28072 35-239): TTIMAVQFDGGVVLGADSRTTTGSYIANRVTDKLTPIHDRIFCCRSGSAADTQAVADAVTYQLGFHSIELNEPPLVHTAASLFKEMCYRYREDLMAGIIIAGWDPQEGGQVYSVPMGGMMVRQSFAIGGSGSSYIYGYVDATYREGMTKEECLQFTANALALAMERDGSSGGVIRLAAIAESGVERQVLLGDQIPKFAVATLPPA
T5 sequence (Q99436 44-277): T3 sequence (Q99436 44-277)

[15] = target: chymotrypsin-like activity of yeast 20S proteasome (Saccharomyces cerevisiae, UniProt P23724+P30656); test: Yeast 20S core particle activity, substrate Suc-LLVY-amc; conditions: read-out: IC50 for yeast 20S proteasome: Chym-L
Description: Proteasomes were pre-incubated with inhibitors for minutes, and inhibitors were present during activity assays. Fluorescence was measured at λexc=360, λem=460 nm using a Varian Cary Eclipse Fluorescence Spectrophotometer (Agilent Technologies).

Structure (SMILES)	effect on bortezomib resistance [1]	inhibition of β2 activity in living cells ([2]; 4 hours)	inhibition of β5 in cell lysate [3]	difference in IC50 for trypsin-like activity between NCI-H929 and RPMI-8226 [4]	time to steady-state proteasome inhibition ([4]; RPMI-8226 cells) [h]	effect on bortezomib resistance [5]	cytotoxicity of combination [6]	sensitization to bortezomib [7]	sensitization to carfilzomib [7]	inhibition of cathepsins (Z-FR-amc) [8]	inhibition of β2 in EL-4 lysate [9]	β5 in living cells [10]	β2 band in living cells [2]	IC50 ([11]; NCI-H929 cells) [µM]	IC50 ([11]; RPMI-8226 cells) [µM]	concentration at which inhibition of β2i starts [12] [µM]	IC50 [13] [µM]	IC50 ([14]; NCI-H929 cells) [µM]	IC50 ([14]; RPMI-8226 cells) [µM]	IC50 [15] [µM]
CC(C)C[C@H](NC(=O)[C@H](Cc1ccccc1)N=[N+]=[N-])C(=O)N[C@@H](CC(C)C)C(=O)N[C@H](/C=C/S(C)(=O)=O)Cc1ccc(CN)cc1 [Compound 4a, N3Phe-Leu-Leu-Phe (4-CH2NH2) VS]	overcomes bortezomib resistance	inhibiting (almost) all β2 activity	completely blocked β5	three-fold	1	overcomes bortezomib resistance	synergistic cytotoxicity	sensitized RPMI-8226 cells to bortezomib	slightly more potent sensitizer to carfilzomib than was NC-022	Partial inhibition of cathepsins	–	–	–	–	–	–	–	–	–	–
Cc1c(O)cccc1C(=O)N[C@H](C(=O)N[C@@H](CO)C(=O)N[C@H](/C=C/S(C)(=O)=O)Cc1ccc(CN)cc1)C(C)C [Compound 48, HMB-Val-Ser-Phe (4-CH2NH2)-VS]	–	–	Only a part of the β5 activity was inhibited	greater than ten-fold	–	–	–	–	–	did not cause any inhibition of cathepsins	almost completely blocked	not affected at all	almost disappeared	0.2	3.2	5	11	> 30	> 30	19.3
